Drawing on patent publication US12252481B2, “Anti-viral compounds” (Aligos Therapeutics, Inc., priority 2021, dated 2025), this text covers IC50, EC50 and CC50 for 13 compounds.

The target of data set [1] is T1, HRV3C (Human rhinovirus 14, UniProt P03303).
T1 construct: 3CLpro and HRV3C was added using a Multidrop Combi
Nature of the data set: biochemical. Also on record: species or system HRV. Particulars: HRV3C, 30 mins preincubation, SAMDI-MS; read-out: HRV IC50 (bound).

The subject of data set [2] is human beta-coronavirus OC43. The experiment in a line: OC43 coronavirus antiviral assay in HeLa cells (cytopathic effect, cell-titer-glo). Particulars: 6 days at 33° C., read-out: EC50 (class). The format is cell-based. A general note: Cytopathic effects are the visible damage that an infection or toxin causes in cultured cells.
For data set [3], the target named is T2, human cathepsin L (Homo sapiens, UniProt P07711).
T2 construct: purchased R&D Systems
T2 sequence (P07711 114-333): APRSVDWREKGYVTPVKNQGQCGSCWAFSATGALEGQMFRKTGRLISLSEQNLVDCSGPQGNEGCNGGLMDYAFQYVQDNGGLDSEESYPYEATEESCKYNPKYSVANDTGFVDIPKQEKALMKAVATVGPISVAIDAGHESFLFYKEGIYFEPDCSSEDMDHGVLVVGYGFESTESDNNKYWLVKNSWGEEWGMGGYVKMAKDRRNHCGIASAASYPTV
The experiment in a line: Cathepsin L assay (Z-FR-AMC fluorescence). The format is biochemical. Particulars: 10 pM human cathepsin L, 30 mins preincubation, Z-FR-AMC 2 μM. The essentials:
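Human cathepsin L (10 pM) was preincubated 30 min with compound, then reactions were started with Z-FR-AMC substrate (2 μM final). AMC fluorescence (355/460 nm) was read every 2 min over 30 min. IC50 came from a four-parameter curve fit.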

In data set [4] the test system is HeLa cells. The experiment in a line: Cytotoxicity in HeLa cells without OC43 virus (cell-titer-glo). Particulars: HeLa cells without OC43 virus.
Data set [5] deals with A549-dual_ACE2_TMPRSS2 cells. Particulars: read-out: A549-dual_ACE2_TMPRSS2 (CC50); assay medium without virus, MTS, numeric values.
In data set [6] the target is T3, SARS-Cov-2 3CLpro (Severe acute respiratory syndrome coronavirus 2, UniProt P0DTD1).
T3 construct: 3CLpro and HRV3C was added using a Multidrop Combi
Nature of the data set: biochemical. Particulars: read-out: SARS-Cov-2 IC50 (class).

The test system of data set [7] is B.1.1.7 lineage SARS-CoV-2. The experiment in a line: microbe, parasite or virus in culture. The format is cell-based. Particulars: read-out: A549-dual_ACE2_TMPRSS2 (EC50).
Data set [8] relates to SARS-CoV-2-GHB-03021/2020. The format is cell-based. Particulars: read-out: VeroE6 + CP (EC50).
Where [9] appears, read: 3CLpro, 30 mins preincubation, SAMDI-MS.
Where [10] appears, read: Betacoronavirus 1, OC43, HeLa, 144 h.
[11] abbreviates: Severe acute respiratory syndrome coronavirus 2, 96 h.

Like-named read-outs stand apart in the source and are kept apart here.

T1 sequence (P03303 1538-1719): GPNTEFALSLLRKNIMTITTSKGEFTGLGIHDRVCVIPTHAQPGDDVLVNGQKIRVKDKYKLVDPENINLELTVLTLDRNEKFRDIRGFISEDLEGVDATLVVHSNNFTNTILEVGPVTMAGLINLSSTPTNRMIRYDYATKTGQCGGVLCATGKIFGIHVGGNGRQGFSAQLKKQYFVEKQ

As usually defined, the IC50 is the midpoint of a concentration-inhibition curve. As a reminder, the EC50 is the concentration that produces a half-maximal response. For orientation: CC50 means the concentration at which the toxic effect on the cells reaches its halfway point. Consider `CC(C)(C)[C@H](NC(=O)C(F)(F)F)C(=O)N1C[C@@H]2[C@H]3C[C@@H]([C@@H]2[C@H]1C(=O)N[C@H](C#N)C[C@@H]1CCNC1=O)C(F)(F)C3` [Compound 61, (1S,2R,3S,6R,7S)—N-[(1S)-1-cyano-2-[(3S)-2-oxopyrrolidin-3-yl]ethyl]-4-[(2S)-3,3-dimethyl-2-(2,2,2-trifluoroacetamido)butanoyl]-9,9-difluoro-4-azatricyclo[5.2.1.0^{2,6}]decane-3-carboxamide], for which the 50% inhibitory concentration (IC50) in data set [1] was above 10000 nM; in data set [3], at least 10000 nM; in data set [6], below 20 nM. For the same compound, in data set [2], the EC50 is 100 to 1000 nM. The CC50 is above 100000 nM in data set [4] and above 10000 nM in data set [5].
As for `CC(C)(C)[C@H](NC(=O)C(F)(F)F)C(=O)N1C[C@@]2(F)[C@@H]([C@H]1C(=O)N[C@H](C#N)C[C@@H]1CCNC1=O)[C@H]1C=C[C@@H]2C1` [Example 94, (1R,2R,3S,6S,7S)—N-[(1S)-1-cyano-2-[(3S)-2-oxopyrrolidin-3-yl]ethyl]-4-[(2S)-3,3-dimethyl-2-(2,2,2-trifluoroacetamido)butanoyl]-6-fluoro-4-azatricyclo[5.2.1.0^{2,6}]dec-8-ene-3-carboxamide], the IC50 is above 500 nM in data set [1] and below 20 nM in data set [6]. Also, the EC50 in data set [2] and in data set [7] was below 100 nM in each case. Moreover, the cytotoxic concentration (CC50) was above 100000 nM in data set [4] and above 1000 nM in data set [5].
With `CC(C)(C)[C@H](NC(=O)C(F)(F)F)C(=O)N1C[C@@H]2[C@H]3CC[C@H](CC3)[C@@H]2[C@H]1C(=O)N[C@H](C#N)C[C@@H]1CCNC1=O` [Compound 71b], the IC50 in data set [1] was above 10000 nM; in data set [6] (setting [9]), below 20 nM. The 50% effective concentration (EC50) in data set [2] and in data set [7] was below 100 nM each time. Besides, the figures for the CC50 in data set [4] and in data set [5] were above 100000 nM and above 10000 nM, respectively.
Consider `CC(C)(C)[C@H](NC(=O)C(F)(F)F)C(=O)N1C[C@H]2[C@@H]([C@H]1C(=O)N[C@H](C#N)C[C@@H]1CCNC1=O)[C@H]1C=C[C@@H]2CC1` [Compound 59b], for which the results for the IC50 in data set [1], in data set [3] and in data set [6] (setting [9]) were above 10000 nM, at least 10000 nM and below 20 nM, respectively. Moreover, the EC50 in data set [2] is below 100 nM. Besides, the cytotoxic concentration (CC50) in data set [4] was above 100000 nM; in data set [5], above 10000 nM.
In the case of `CC(C)(C)[C@H](NC(=O)C(F)(F)F)C(=O)N1C[C@H]2[C@@H]([C@H]1C(=O)N[C@H](C#N)CC1CC3(COC3)NC1=O)[C@H]1C=C[C@@H]2C1` (stereo partly drawn) [Compound 106, (1R,2S,3S,6R,7S)—N-[(1S)-1-cyano-2-{6-oxo-2-oxa-5-azaspiro[3.4]octan-7-yl}ethyl]-4-[(2S)-3,3-dimethyl-2-(2,2,2-trifluoroacetamido)butanoyl]-4-azatricyclo[5.2.1.0^{2,6}]dec-8-ene-3-carboxamide], the IC50 was above 500 nM in data set [1] and below 20 nM in data set [6]. For the same compound, the concentration for a half-maximal effect (EC50) in data set [2] and in data set [7] was below 100 nM each time. In addition, the results for the half-maximal cytotoxic concentration (CC50) in data set [4] and in data set [5] were above 100000 nM and above 10000 nM, respectively.
Consider `C=CC(C)(C)[C@H](NC(=O)C(F)(F)F)C(=O)N1C[C@H]2[C@@H]([C@H]1C(=O)N[C@H](C#N)C[C@@H]1CCNC1=O)[C@H]1C=C[C@@H]2C1` [Example 28, (1R,2S,3S,6R,7S)—N-[(1S)-1-cyano-2-[(3S)-2-oxopyrrolidin-3-yl]ethyl]-4-[(2S)-3,3-dimethyl-2-(2,2,2-trifluoroacetamido)pent-4-enoyl]-4-azatricyclo[5.2.1.0^{2,6}]dec-8-ene-3-carboxamide], for which the concentration for half-maximal inhibition (IC50) in data set [1] is above 10000 nM; in data set [3] it was at least 10000 nM; in data set [6] (setting [9]), below 20 nM. Also, the EC50 in data set [2] (setting [10]), in data set [7] (setting [11]) and in data set [8] was below 100 nM throughout.
Consider `CC(C)(C)[C@H](NC(=O)C(F)(F)F)C(=O)N1C[C@H]2[C@@H]([C@H]1C(=O)N[C@H](C#N)C[C@@H]1CCNC1=O)[C@H]1CC[C@@H]2C12CC2` [Example 18, (1′R,2′S,3′S,6′R,7′S)—N-[(1S)-1-cyano-2-[(3S)-2-oxopyrrolidin-3-yl]ethyl]-4′-[(2S)-3,3-dimethyl-2-(2,2,2-trifluoroacetamido)butanoyl]-4′-azaspiro[cyclopropane-1,10′-tricyclo[5.2.1.0^{2,6}]decane]-3′-carboxamide], for which the half-inhibitory concentration (IC50) was above 10000 nM in data set [1], at least 10000 nM in data set [3] and below 20 nM in data set [6] (setting [9]). In addition, the EC50 in data set [2] (setting [10]) is below 100 nM; in data set [7] (setting [11]), 100 to 1000 nM; in data set [8], below 100 nM.
Take `Cc1nnc(N[C@H](C(=O)N2C[C@H]3[C@@H]([C@H]2C(=O)N[C@H](C#N)C[C@@H]2CCNC2=O)[C@H]2C=C[C@@H]3C2)C(C)(C)C)o1` [Compound 43, (1S,3aR,4S,7R,7aS)-N-((S)-1-cyano-2-((S)-2-oxopyrrolidin-3-yl)ethyl)-2-((S)-3,3-dimethyl-2-((5-methyl-1,3,4-oxadiazol-2-yl)amino)butanoyl)-2,3,3a,4,7,7a-hexahydro-1H-4,7-methanoisoindole-1-carboxamide]: the IC50 in data set [1] is above 10000 nM; in data set [3], at least 10000 nM; in data set [6] (setting [9]) it was below 20 nM. Besides, the 50% effective concentration (EC50) in data set [2] (setting [10]), in data set [7] (setting [11]) and in data set [8] was 100 to 1000 nM in each case.
Take `CC(C)(C)[C@H](NC(=O)C1(C2CC2)CC1)C(=O)N1C[C@H]2[C@@H]([C@H]1C(=O)N[C@H](C#N)C[C@@H]1CCNC1=O)[C@H]1C=C[C@@H]2C1` [Example 35, (1R,2S,3S,6R,7S)-4-[(2S)-2-{[1,1′-bi(cyclopropane)]-1-ylformamido}-3,3-dimethylbutanoyl]-N-[(1S)-1-cyano-2-[(3S)-2-oxopyrrolidin-3-yl]ethyl]-4-azatricyclo[5.2.1.0^{2,6}]dec-8-ene-3-carboxamide]: the figures for the IC50 in data set [1], in data set [3] and in data set [6] (setting [9]) were above 10000 nM, at least 10000 nM and 20 to 200 nM, respectively. In addition, the values for the EC50 in data set [2] (setting [10]), in data set [7] (setting [11]) and in data set [8] were 100 to 1000 nM, 1000 to 10000 nM and 100 to 1000 nM, respectively.
As for `CC(C)(C)[C@H](NC(=O)[C@H]1CCCO1)C(=O)N1C[C@H]2[C@@H]([C@H]1C(=O)N[C@H](C#N)C[C@@H]1CCNC1=O)[C@H]1C=C[C@@H]2C1` [Example 22, (1S,3aR,4S,7R,7aS)-N-((S)-1-cyano-2-((S)-2-oxopyrrolidin-3-yl)ethyl)-2-((S)-3,3-dimethyl-2-((R)-tetrahydrofuran-2-carboxamido)butanoyl)-2,3,3a,4,7,7a-hexahydro-1H-4,7-methanoisoindole-1-carboxamide], the IC50 in data set [1] is above 10000 nM; in data set [3] it was at least 10000 nM; in data set [6] (setting [9]) it was 200 to 2000 nM. Moreover, the EC50 in data set [2] (setting [10]), in data set [7] (setting [11]) and in data set [8] was 1000 to 10000 nM throughout.
As for `[2H]C1([2H])C[C@@H](C[C@@H](C#N)NC(=O)[C@@H]2[C@@H]3[C@H](CN2C(=O)[C@@H](NC(=O)C(F)(F)F)C(C)(C)C)[C@@H]2C=C[C@H]3C2)C(=O)N1` [Compound 50, (1S,3aR,4S,7R,7aS)-N-((S)-1-cyano-2-((S)-2-oxopyrrolidin-3-yl-5,5-d2)ethyl)-2-((S)-3,3-dimethyl-2-(2,2,2-trifluoroacetamido)butanoyl)-2,3,3a,4,7,7a-hexahydro-1H-4,7-methanoisoindole-1-carboxamide], the 50% inhibitory concentration (IC50) is above 10000 nM in data set [1], at least 10000 nM in data set [3] and below 20 nM in data set [6] (setting [9]). Also, the EC50 in data set [2] (setting [10]), in data set [7] (setting [11]) and in data set [8] was below 100 nM in each case.
As for `CC(C)(C)[C@H](NC(=O)C(F)(F)F)C(=O)N1C[C@H]2[C@@H]([C@H]1C(=O)N[C@H](C#N)C[C@@H]1CCNC1=O)[C@H]1C=C[C@@H]2C1` [Example 1, (1S,3aR,4S,7R,7aS)-N-((S)-1-cyano-2-((S)-2-oxopyrrolidin-3-yl)ethyl)-2-((S)-3,3-dimethyl-2-(2,2,2-trifluoroacetamido)butanoyl)-2,3,3a,4,7,7a-hexahydro-1H-4,7-methanoisoindole-1-carboxamide], the IC50 in data set [1] is above 10000 nM; in data set [3] it was at least 10000 nM; in data set [6] (setting [9]), below 20 nM. In addition, the EC50 in data set [2] (setting [10]), in data set [7] (setting [11]) and in data set [8] was below 100 nM each time.
On to `C#CC(C)(C)[C@H](NC(=O)C(F)(F)F)C(=O)N1C[C@@H]2[C@@H]3CC[C@@H](C3)[C@@H]2[C@H]1C(=O)N[C@H](C#N)C[C@@H]1CCNC1=O` [Example 13, (1S,2S,3S,6R,7R)—N-[(1S)-1-cyano-2-[(3S)-2-oxopyrrolidin-3-yl]ethyl]-4-[(2S)-3,3-dimethyl-2-(2,2,2-trifluoroacetamido)pent-4-ynoyl]-4-azatricyclo[5.2.1.0^{2,6}]decane-3-carboxamide], for which the IC50 in data set [1] is above 10000 nM; in data set [3] it was at least 10000 nM; in data set [6] (setting [9]), 20 to 200 nM. Further, the EC50 is 100 to 1000 nM in data set [2] (setting [10]), below 100 nM in data set [7] (setting [11]) and below 100 nM in data set [8].
